{"source": "patent US20070249590A1", "about": "“Substituted indolo[2,3-a]pyrrolo[3,4-c]carbazole compounds useful in treating kinase disorders” (priority 2005, published 2007)", "data": [{"molecular_target": "T1, JAK3 (JH1 and JH2 domain) (Homo sapiens, UniProt P52333)", "T1 sequence (P52333 521-1111 limits assumed)": "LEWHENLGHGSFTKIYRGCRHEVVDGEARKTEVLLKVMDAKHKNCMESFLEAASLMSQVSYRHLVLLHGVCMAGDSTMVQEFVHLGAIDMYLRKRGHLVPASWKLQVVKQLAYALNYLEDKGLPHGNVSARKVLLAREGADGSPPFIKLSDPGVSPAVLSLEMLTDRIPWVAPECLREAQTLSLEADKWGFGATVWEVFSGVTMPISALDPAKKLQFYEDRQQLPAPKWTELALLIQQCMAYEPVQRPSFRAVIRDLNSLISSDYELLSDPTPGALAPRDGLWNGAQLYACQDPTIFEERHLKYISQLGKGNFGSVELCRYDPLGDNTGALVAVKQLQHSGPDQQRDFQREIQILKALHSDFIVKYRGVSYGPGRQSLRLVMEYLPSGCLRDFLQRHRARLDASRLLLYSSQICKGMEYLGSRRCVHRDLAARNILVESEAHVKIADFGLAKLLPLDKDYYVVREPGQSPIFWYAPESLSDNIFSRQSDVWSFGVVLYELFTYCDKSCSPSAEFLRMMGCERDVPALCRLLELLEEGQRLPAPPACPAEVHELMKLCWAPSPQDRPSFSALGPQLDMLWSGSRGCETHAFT", "assay": "JAK3 Kinase Assay (ELISA of peptide substrate phosphorylation)", "assay_type": "biochemical", "details": "purified JAK3 enzyme, 10 μM ATP, biotinylated peptide substrate, 1 hour at room temperature", "experimental": "JAK3 enzyme activity was assayed relative to enzyme phosphorylation using the method described herein.\nSf21 cells derived from the ovarian tissue of the fall armyworm Spodotera frugiperda were obtained from Pharmingen (San Diego, Calif.) and maintained at a temperature of about 26-28° C. in 1 l Bellco spinner flasks at 60-90 rpm. Cell viability was maintained at 95-100%, as determined by a tryptan blue dye exclusion test.\nSf21 cells were infected with a baculovirus expression vector for JAK3 (JH1 and JH2 domain). After 48 hours of infection, cells were harvested and lysed in Tris-saline (pH 7.6) containing 2% NP-40 and a combination of protease inhibitors (Aprotinin, Pepstatin A, Pefabloc, E-64, Leupeptin, and Benzamidine) on ice for 45 minutes.\nThe JAK3 enzyme was purified from the lysate using glutathione sepharose beads and the enzyme activity was assessed in Costar flat bottom EIA/RIA 96 well plates. The plates were coated with Neutravidin (110 μL) (Pierce Neutravidin Biotin-binding Protein 31000; 1 mg/mL 1:100) diluted in PBS for 1 hour at room temperature. The plates were washed with PBS-0.1% Tween (3 times) to remove unbound Neutravidin, then 1% BSA (150 NIL) in PBS was added to each well to block non-specific binding. The plates was incubated for 1 hour at room temperature and stored at −80° C. until use.\nJAK3 enzyme solution (48 μL) in 1.25×TK buffer (62.5 mM HEPES pH 7.5, 12.5 mM MgCl2) containing DTT (42 mM) (Sigma, St. Louis, Mo.) was added to each well of a polypropylene 96 well plate.\nA test compound (5 μL) diluted in DMSO (48 μL) and biotinylated peptide enzyme substrate (5 μg diluted in TK buffer containing 10 μM ATP) were added to each well using the double dispense feature of a multichannel electronic biohit. Control wells received DMSO vehicle (5 μL). The contents of the wells were mixed for approximately 8 seconds using a multitube vortexer and the reaction mixture was incubated for 1 hour at room temperature.\nAfter incubation, an aliquot of reaction mixture (90 μL) was transferred into a washed Neutravidin coated plate. The plate was incubated for 15 minutes at room temperature and washed 3 times with PBS-T. PY99 anti-phosphotyrosine antibody (100 μL/well) (Santa Cruz #sc-7020HRP diluted 1:6000 in 1× antibody buffer) was added into each well and the plate was incubated for 40 minutes at room temperature. The antibody buffer contained 10% BSA, 100 mM Tris (pH 7.5), 1M NaCl and 1% Tween 20. The plate washed 3 times with PBS-T, then TMB (100 pLXSigma, St. Louis, Mo.) was added to the each well. The plate was incubated for another 40 mins at room temperature in the dark. The reaction was stopped by the addition of 1M H2SO4 (50 μL/well) and the optical density was read at 450/650 nm.\nTest compounds were assayed in triplicate at 16 concentrations at half-log dilutions starting at 200 μM. A maximum and minimum signal for the assay was determined on each plate. The percent inhibition of a test compound was calculated according to the formula [formula]\nFor a series of test concentrations, the IC50 was derived by graphing percent inhibition against the log of the concentrations tested for a given compound. For those compounds without an IC50, the percent inhibition results are shown at a test concentration of 1 μM.", "units": {"IC50": "nM"}, "values": [{"smiles": "COc1ccccc1CNC(=O)OCC1Cn2c3ccccc3c3c4c(c5c6ccccc6n(c5c32)C1)C(=O)NC4", "note": "(stereo not drawn) [Cpd 169, 12,13-{2-[(2-methoxy-benzyl)carbamoyloxymethyl]-propan-1,3-yl}-6,7,12,13-tetrahydro-5-oxo-5H-indolo[2,3-a]pyrrolo[3,4-c]carbazole]", "IC50": 73}, {"smiles": "O=C1NC(=O)c2c1c1c3ccccc3n3c1c1c2c2ccccc2n1CC(OC(=O)N1CCN(CCc2ccccc2)CC1)CC3", "note": "(stereo not drawn) [Cpd 65, 12,13-(2-{[4-(2-phenyl-ethyl)piperazin-1-yl]carbonyloxy}-butan-1,4-yl)-12,13-dihydro-5,7-dioxo-6H-indolo[2,3-a]pyrrolo[3,4-c]carbazole]", "IC50": 1000}, {"smiles": "O=C1NC(=O)c2c1c1c3ccccc3n3c1c1c2c2ccccc2n1CC(OC(=O)N1CCOCC1)CC3", "note": "(stereo not drawn) [Cpd 71, 12,13-[2-(morpholin-4-yl-carbonyloxy)-butan-1,4-yl]-12,13-dihydro-5,7-dioxo-6H-indolo[2,3-a]pyrrolo[3,4-c]carbazole]", "IC50": 38}, {"smiles": "CN(C)CCCNC(=O)OC1CCn2c3ccccc3c3c4c(c5c6ccccc6n(c5c32)CC1)C(=O)NC4", "note": "(stereo not drawn) [Cpd 186, 12,13-{3-[(3-dimethylamino-prop-1-yl)carbamoyloxy]-pentan-1,5-yl}-6,7,12,13-tetrahydro-5-oxo-5H-indolo[2,3-a]pyrrolo[3,4-c]carbazole]", "IC50": 178}, {"smiles": "O=C1NCc2c1c1c3cc(NC4=NCCN4)ccc3n3c1c1c2c2ccccc2n1CC(O)C(O)C3", "note": "(stereo not drawn) [Cpd 206]", "IC50": 49}, {"smiles": "CN1CCN(CCCNC(=O)OCC2(O)Cn3c4ccccc4c4c5c(c6c7ccccc7n(c6c43)C2)C(=O)NC5)CC1", "note": "(stereo not drawn) [Cpd 151, 12,13-(2-hydroxy-2-{[3-(4-methyl-piperazin-1-yl)prop-1-yl]carbamoyloxymethyl}-propan-1,3-yl)-6,7,12,13-tetrahydro-5-oxo-5H-indolo[2,3-a]pyrrolo[3,4-c]carbazole]", "IC50": 23}, {"smiles": "COCCNC(=O)OC1CCn2c3ccccc3c3c4c(c5c6ccccc6n(c5c32)CC1)C(=O)NC4", "note": "(stereo not drawn) [Cpd 179, 12,13-{3-[(2-methoxy-ethyl)carbamoyloxy]-pentan-1,5-yl}-6,7,12,13-tetrahydro-5-oxo-5H-indolo[2,3-a]pyrrolo[3,4-c]carbazole]", "IC50": 1060}, {"smiles": "O=C(NCc1ccncc1)OC1Cn2c3ccccc3c3c4c(c5c6ccccc6n(c5c32)CC1O)C(=O)NC4=O", "note": "(stereo not drawn) [Cpd 89, 12,13-{2-[(pyridin-4-yl-methyl)carbamoyloxy]-3-hydroxy-butan-1,4-yl}-12,13-dihydro-5,7-dioxo-6H-indolo[2,3-a]pyrrolo[3,4-c]carbazole]", "IC50": 27}, {"smiles": "O=C(NCCc1ccccn1)OCC1Cn2c3ccccc3c3c4c(c5c6ccccc6n(c5c32)C1)C(=O)NC4", "note": "(stereo not drawn) [Cpd 160, 12,13-{2-[(2-pyridin-2-yl-ethyl)carbamoyloxymethyl]-propan-1,3-yl}-6,7,12,13-tetrahydro-5-oxo-5H-indolo[2,3-a]pyrrolo[3,4-c]carbazole]", "IC50": "> 200"}, {"smiles": "O=C1NCc2c1c1c3ccccc3n3c1c1c2c2ccccc2n1CC(COC(=O)N1CCN(C(=O)OCc2ccccc2)CC1)C3", "note": "(stereo not drawn) [Cpd 167, 12,13-(2-{[4-(benzyloxycarbonyl)piperazin-1-yl]carbonyloxymethyl}-propan-1,3-yl)-6,7,12,13-tetrahydro-5-oxo-5H-indolo[2,3-a]pyrrolo[3,4-c]carbazole]", "IC50": 202}, {"smiles": "O=C(NC1CCNC1)OC1CCn2c3ccccc3c3c4c(c5c6ccccc6n(c5c32)C1)C(=O)NC4=O", "note": "(stereo not drawn) [Cpd 72, 12,13-[2-(pyrrolidin-3-yl-carbamoyloxy)-butan-1,4-yl]-12,13-dihydro-5,7-dioxo-6H-indolo[2,3-a]pyrrolo[3,4-c]carbazole]", "IC50": 12}, {"smiles": "O=C1NC(=O)c2c1c1c3ccccc3n3c1c1c2c2ccccc2n1CC(OC(=O)N1CCC(C2CCCCC2)CC1)CC3", "note": "(stereo not drawn) [Cpd 53, 12,13-{2-[(4-cyclohexyl-piperazin-1-yl)carbonyloxy]-butan-1,4-yl}-12,13-dihydro-5,7-dioxo-6H-indolo[2,3-a]pyrrolo[3,4-c]carbazole]", "IC50": "> 400"}, {"smiles": "O=C1NC(=O)c2c1c1c3ccccc3n3c1c1c2c2ccccc2n1CC(O)(C(=O)NC(CO)CO)C(O)C3", "note": "(stereo not drawn) [Cpd 118, 12,13-{2-[(1,3-hydroxy-isopropyl)carbamoyl]-2,3-dihydroxy-butan-1,4-yl}-12,13-dihydro-5,7-dioxo-6H-indolo[2,3-a]pyrrolo[3,4-c]carbazole]", "IC50": 36}, {"smiles": "CC(C)(C)OC(=O)NC1CCN(C(=O)OCC2(O)Cn3c4ccccc4c4c5c(c6c7ccccc7n(c6c43)C2)C(=O)NC5)CC1", "note": "(stereo not drawn) [Cpd 175, 12,13-{2-hydroxy-2-[(4-t-butoxyamido-piperidin-1-yl)carbonyloxymethyl]-propan-1,3-yl}-6,7,12,13-tetrahydro-5-oxo-5H-indolo[2,3-a]pyrrolo[3,4-c]carbazole]", "IC50": 244}, {"smiles": "O=C1NC(=O)c2c1c1c3ccccc3n3c1c1c2c2ccccc2n1C/C=C\\C3", "note": "[Cpd 1, 12,13-(but-2-en-1,4-yl)-12,13-dihydro-5,7-dioxo-6H-indolo[2,3-a]pyrrolo[3,4-c]carbazole]", "IC50": 22}, {"smiles": "O=C1NCc2c1c1c3ccccc3n3c1c1c2c2ccccc2n1CC(O)(COC(=O)N1CCc2ccccc2C1)C3", "note": "(stereo not drawn) [Cpd 147, 12,13-{2-hydroxy-2-[(1,2,3,4-tetrahydro-isoquinolin-2-yl)carbonyloxymethyl]-propan-1,3-yl}-6,7,12,13-tetrahydro-5-oxo-5H-indolo[2,3-a]pyrrolo[3,4-c]carbazole]", "IC50": 28}, {"smiles": "CC1(O)Cn2c3ccccc3c3c4c(c5c6ccccc6n(c5c32)CC1(C)O)C(=O)NC4", "note": "(stereo not drawn) [Cpd 20, 12,13-(2,3-dimethyl-2,3-dihydroxy-butan-1,4-yl)-6,7,12,13-tetrahydro-5-oxo-5H-indolo[2,3-a]pyrrolo[3,4-c]carbazole]", "IC50": 12}, {"smiles": "O=C1NCc2c1c1c3ccccc3n3c1c1c2c2ccccc2n1CC(O)(CO)C3", "note": "(stereo not drawn) [Cpd 25, 12,13-(2-hydroxy-2-hydroxymethyl-propan-1,3-yl)-6,7,12,13-tetrahydro-5-oxo-5H-indolo[2,3-a]pyrrolo[3,4-c]carbazole]", "IC50": 29}, {"smiles": "CN(C)[C@H]1CCN(C(=O)OCC2Cn3c4ccccc4c4c5c(c6c7ccccc7n(c6c43)C2)C(=O)NC5)C1", "note": "(stereo partly drawn) [Cpd 171, 12,13-(2-{[(3S)-3-dimethylamino-pyrrolidin-1-yl]carbonyloxymethyl}-propan-1,3-yl)-6,7,12,13-tetrahydro-5-oxo-5H-indolo[2,3-a]pyrrolo[3,4-c]carbazole]", "IC50": 677}, {"smiles": "O=Cc1ccc2c(c1)c1c3c(c4c5cc(Br)ccc5n5c4c1n2CC(CO)C5)C(=O)NC3", "note": "(stereo not drawn) [Cpd 207, 3-bromo-9-formyl-12,13-(2-hydroxymethyl-propan-1,3-yl)-6,7,12,13-tetrahydro-5-oxo-5H-indolo[2,3-a]pyrrolo[3,4-c]carbazole]", "IC50": 13}, {"smiles": "O=C1NC(=O)c2c1c1c3ccccc3n3c1c1c2c2ccccc2n1CC(O)(C(=O)NCCc1cccs1)C(O)C3", "note": "(stereo not drawn) [Cpd 128, 12,13-{2-[(2-thien-2-yl-ethyl)carbamoyl]-2,3-dihydroxy-butan-1,4-yl}-12,13-dihydro-5,7-dioxo-6H-indolo[2,3-a]pyrrolo[3,4-c]carbazole]", "IC50": 94}]}]}
